Results on 17 compounds are retold here after patent US10959979B2, “Small molecules against cancer” (Biokine Therapeutics Ltd., priority 2015, dated 2021).

In one test the test system is Legionella. The note with it: cited from earlier work.
For another test, the target named is MCP-1 (Homo sapiens, UniProt P13500). The experiment in a line: Migration of THP-1 cells towards MCP-1 (Transwell migration assay). The test is classed as cell-based. The note with it: BKT300 at 78% purity. The method, then: (§1) 600 μl of RPMI medium was added to the lower chambers of Transwell® transmigration plates, supplemented with 2 μg/ml of MIP3a, 100 ng/ml of SDF-1 or 10 ng/ml of MCP-1. The tested small molecule was added to the lower chambers at the indicated concentration, except in control samples. The MIP3a, SDF-1 or MCP-1 was incubated with the small molecule for 30 minutes at room temperature before the initiation of the migration assay. Following 30 minutes of incubation 2×10^5 immune cells were added to the upper chambers of the transmigration plates in a total volume of 100 μl. Cells which migrated within 3 hours to the bottom chamber of the Transwell® plates were counted using a FACScalibur™ flow cytometer.
To evaluate migration towards MCP-1, THP-1 cells were re-suspended in RPMI medium containing 1% fetal calf serum (FCS).

The target of the next test is SDF-1 (Homo sapiens, UniProt P48061). The experiment in a line: Migration of Jurkat cells towards SDF-1 (Transwell migration assay). Format: cell-based. The note with it: for Selectivity of inhibition of SDF-1 function over MCP-1 and/or MIP3a function: at a concentration of about 10 μg/ml. The method, then:
as §1
To evaluate migration towards SDF-1, Jurkat cells were re-suspended in RPMI medium containing 1% fetal calf serum (FCS).

Another test addresses MIP3a (Homo sapiens, UniProt P78556). Kind of test: Migration of CD4+ T-cells toward MIP3a (Transwell migration assay). Format: cell-based. Here is the method: as §1
To evaluate migration toward MIP3a, peripheral blood mononuclear cells (PBMCs) were isolated from heparinized venous blood by centrifugation over Ficoll Histopaque® 1077. CD4+ T cells were further isolated with RosetteSep™ human CD4+ T-cell Enrichment cocktail (StemCell Technologies Inc.), according to the manufacturer's instructions. CD4+ T cells were re-suspended in RPMI medium containing 1% fetal calf serum (FCS).

Test [1] deals with MV4-11 human acute myeloid leukemia cells. The experiment in a line: Cancer cell viability, FACS with propidium iodide staining. Format: cell-based. To be noted: 24 hours. The method, then: In order to assess the effect of compounds of Table 2 on cancer cell viability, the in vitro effect of the compounds on MV4-11 human acute myeloid leukemia cells was evaluated. The cancer cells were incubated in RPMI cell medium with 1% fetal calf serum (FCS) at a concentration of 2×10^5 cells/well at a final volume of 250 μl in 96-well plate. The compounds were added to the cells at the indicated concentrations. The cells were incubated for 24 hours and the number of dead and viable cells was then evaluated by fluorescence-activated cell sorting (FACS), using propidium iodide (PI) staining.

The next test has as its system cancer cells. To be noted: literature reports; cited from earlier work.
Test [2] deals with MCP-1 expression in adipocytes. The note with it: reported by Kuroyanagi et al.; cited from earlier work.

Entries after “also recorded” stand apart in the source; their conditions may differ.

MCP-1, sequence (P13500 24-99): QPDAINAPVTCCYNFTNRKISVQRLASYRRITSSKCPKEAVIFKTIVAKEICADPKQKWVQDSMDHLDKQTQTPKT
SDF-1, sequence (P48061 22-93): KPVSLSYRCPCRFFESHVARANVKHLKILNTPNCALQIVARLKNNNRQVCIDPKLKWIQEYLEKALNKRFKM
MIP3a, sequence (P78556 27-96): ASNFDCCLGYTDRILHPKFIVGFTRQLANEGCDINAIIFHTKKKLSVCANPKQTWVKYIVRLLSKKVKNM

With `CCCCCC(=O)Cc1cc(O)cc(O)c1Oc1cc(O)cc2cc(CCCCC)oc(=O)c12` [8-(2,4-dihydroxy-6-(2-oxoheptyl)-phenoxy)-6-hydroxy-3-pentyl-1H-isochromen-1-one], the “Antibacterial activity against Legionella” value in the test on Legionella is “potent antibacterial activity”.

Turning to `CC(C)=CCc1c(O[C@@H]2O[C@H](CO)[C@@H](O)[C@H](O)[C@H]2O)cc(O)c2c1O[C@H](c1ccc(O)cc1)CC2=O` [BKT201], the entries for the “Inhibition of migration of monocytic THP-1 cells towards MCP-1” value at MCP-1 (10 μg/ml) and on MCP-1 (50 μg/ml) were “no apparent effect” and “strong inhibition”, respectively. In addition, the “Inhibition of migration of lymphocytic Jurkat cells towards SDF-1” value on SDF-1 (10 μg/ml, BKT300 at 78% purity) is listed as “significantly inhibited; also recorded: strong inhibition”. Besides, at SDF-1, the “Selectivity of inhibition of SDF-1 function over MCP-1 and/or MIP3a function” value was “relatively selective manner”. The “Inhibition of CD4+ T-cell migration towards MIP3a” value on MIP3a (50 μg/ml, BKT300 at 78% purity) was “completely inhibited”.

For the compound `C=C1CCC2C(C)(C)C(O)CCC2(C)C1COc1ccc2ccc(=O)oc2c1` (stereo not drawn) [BKT202], the “Inhibition of CD4+ T-cell migration towards MIP3a” value at MIP3a (10 μg/ml) is on record as “significantly inhibited”; on MIP3a (50 μg/ml, BKT300 at 78% purity), “completely inhibited”.

For `Cc1cc(O)c2c(=O)c3c(O)cc(O)c4c5c(O)cc(O)c6c(=O)c7c(O)cc(C)c8c1c2c(c34)c(c78)c65` [BKT203, Hypericin], the “Inhibition of migration of lymphocytic Jurkat cells towards SDF-1” value on SDF-1 (10 μg/ml, BKT300 at 78% purity) is “significantly inhibited; also recorded: strong inhibition”. The “Inhibition of CD4+ T-cell migration towards MIP3a” value at MIP3a (10 μg/ml) is “completely inhibited”.

With `Cc1c(O)c(C)c2c(c1O)C(=O)CC(c1ccc(O)c(O)c1)O2` (stereo not drawn) [BKT204, Cyrtominetin], the “Inhibition of migration of monocytic THP-1 cells towards MCP-1” value on MCP-1 (10 μg/ml) is “partial inhibition”; on MCP-1 (50 μg/ml) it was “strong inhibition”. Further, the “Inhibition of migration of lymphocytic Jurkat cells towards SDF-1” value on SDF-1 (10 μg/ml, BKT300 at 78% purity) was “significantly inhibited”.

On to `CCCCCC=CC=CC(=O)CCCCCCCC(=O)O` [BKT205], for which the “Inhibition of migration of monocytic THP-1 cells towards MCP-1” value at MCP-1 (10 μg/ml) was “no apparent effect”; at MCP-1 (50 μg/ml), “strong inhibition”. For the same compound, the “Inhibition of migration of lymphocytic Jurkat cells towards SDF-1” value on SDF-1 (10 μg/ml, BKT300 at 78% purity) is on record as “significantly inhibited; also recorded: strong inhibition”. The “Selectivity of inhibition of SDF-1 function over MCP-1 and/or MIP3a function” value at SDF-1 was “relatively selective manner”. The “Inhibition of CD4+ T-cell migration towards MIP3a” value at MIP3a (50 μg/ml, BKT300 at 78% purity) is “completely inhibited”.

As to `CCC/C=C\C/C=C\CCCCCCCc1cccc(O)c1C(=O)O` [BKT206], the “Inhibition of migration of monocytic THP-1 cells towards MCP-1” value is listed as “partial inhibition” at MCP-1 (10 μg/ml) and “strong inhibition” on MCP-1 (50 μg/ml). The “Inhibition of migration of lymphocytic Jurkat cells towards SDF-1” value at SDF-1 (10 μg/ml, BKT300 at 78% purity) is on record as “significantly inhibited; also recorded: strong inhibition”. Besides, the “Inhibition of CD4+ T-cell migration towards MIP3a” value at MIP3a (10 μg/ml) is given as “completely inhibited”. In addition, in test [1] (10 μg/ml), the “Cell death of MV4-11 cells” value is reported as “induced cell death”.

Take `COC(=O)c1c(O)cc2c(c1C)C(=O)c1c(O)cccc1C2=O` [BKT207, Aloesaponarin I]: the “Inhibition of migration of lymphocytic Jurkat cells towards SDF-1” value on SDF-1 (10 μg/ml, BKT300 at 78% purity) is listed as “significantly inhibited; also recorded: strong inhibition”. Moreover, the “Inhibition of CD4+ T-cell migration towards MIP3a” value at MIP3a (10 μg/ml) is reported as “completely inhibited”.

In the case of `C/C(=C/COc1c2occc2cc2ccc(=O)oc12)CO` [BKT208, Trichoclin], the “Inhibition of migration of lymphocytic Jurkat cells towards SDF-1” value at SDF-1 (10 μg/ml, BKT300 at 78% purity) was “significantly inhibited”.

In the case of `CCCCCCCCC(=O)/C=C/C=C/C(=O)CCCC(=O)O` [BKT209], the results for the “Inhibition of migration of monocytic THP-1 cells towards MCP-1” value on MCP-1 (10 μg/ml) and on MCP-1 (50 μg/ml) were “no apparent effect” and “strong inhibition”, respectively. For the same compound, the “Inhibition of migration of lymphocytic Jurkat cells towards SDF-1” value at SDF-1 (10 μg/ml, BKT300 at 78% purity) is recorded as “significantly inhibited; also recorded: strong inhibition”. In addition, the “Selectivity of inhibition of SDF-1 function over MCP-1 and/or MIP3a function” value at SDF-1 was “relatively selective manner”. Further, the “Inhibition of CD4+ T-cell migration towards MIP3a” value on MIP3a (50 μg/ml, BKT300 at 78% purity) is recorded as “completely inhibited”.

Regarding `O=C(O)c1cc(O)c2c(c1)[C@H]([C@H]1c3cc(C(=O)O)cc(O)c3C(=O)c3c(O[C@@H]4O[C@H](CO)[C@@H](O)[C@H](O)[C@H]4O)cccc31)c1cccc(O[C@@H]3O[C@H](CO)[C@@H](O)[C@H](O)[C@H]3O)c1C2=O` [BKT210, Sennoside A], the “Inhibition of migration of lymphocytic Jurkat cells towards SDF-1” value on SDF-1 (10 μg/ml, BKT300 at 78% purity) is “significantly inhibited”. The “Inhibition of CD4+ T-cell migration towards MIP3a” value on MIP3a (10 μg/ml) was “significantly inhibited”; at MIP3a (50 μg/ml, BKT300 at 78% purity), “completely inhibited”.

With `CC1CCC2=C(CCCC2(C)C(=O)O)C1(C)CCc1ccoc1` (stereo not drawn) [BKT211], the figures for the “Inhibition of migration of monocytic THP-1 cells towards MCP-1” value at MCP-1 (10 μg/ml) and at MCP-1 (50 μg/ml) were “complete inhibition” and “strong inhibition”, respectively. In addition, the “Inhibition of migration of lymphocytic Jurkat cells towards SDF-1” value at SDF-1 (10 μg/ml, BKT300 at 78% purity) was “significantly inhibited; also recorded: strong inhibition”. Also, in test [1] (10 μg/ml), the “Cell death of MV4-11 cells” value is recorded as “induced cell death”.

For the compound `C=C[C@H](O)C#CC#C[C@@H](O)/C=C\CCCCCCC` [BKT212, Falcarindiol], the “Inhibition of migration of lymphocytic Jurkat cells towards SDF-1” value on SDF-1 (10 μg/ml, BKT300 at 78% purity) is “significantly inhibited; also recorded: strong inhibition”. The “Inhibition of CD4+ T-cell migration towards MIP3a” value on MIP3a (10 μg/ml) is given as “completely inhibited”. Also, the “Inhibition of cancer cells” value in the test on cancer cells is reported as “inhibit cancer cells”.

As to `CC(C)=CCc1cc(OC2O[C@H](CO)[C@@H](O)[C@H](O)[C@H]2O)cc(CC=C(C)C)c1C(O)C(=O)O` (stereo partly drawn) [BKT213], the “Inhibition of migration of lymphocytic Jurkat cells towards SDF-1” value on SDF-1 (10 μg/ml, BKT300 at 78% purity) is recorded as “significantly inhibited; also recorded: strong inhibition”. Besides, the “Selectivity of inhibition of SDF-1 function over MCP-1 and/or MIP3a function” value on SDF-1 is “relatively selective manner”. For the same compound, at MIP3a (50 μg/ml, BKT300 at 78% purity), the “Inhibition of CD4+ T-cell migration towards MIP3a” value is recorded as “completely inhibited”.

As to `CC(C)=CCC/C(C)=C/COc1ccc2ccc(=O)oc2c1` [BKT215, Auraptene], in the test on cancer cells, the “Inhibition of cancer cells” value is listed as “inhibit cancer cells”. For the same compound, the “MCP-1 expression in adipocytes” value in test [2] is “suppress MCP-1 expression”. The “Cell death of MV4-11 cells” value in test [1] (20 am (equivalent to 6 μg/ml)) is “induced cell death”.

As to `CC1(C)CC[C@]2(C(=O)O)CC[C@]3(C)C(=CC[C@@H]4[C@@]5(C)C[C@@H](O)[C@H](O)[C@@](C)(CO)[C@@H]5CC[C@]43C)[C@@H]2C1` [BKT216, Arjunolic acid], the “Inhibition of migration of monocytic THP-1 cells towards MCP-1” value on MCP-1 (10 μg/ml) is “partial inhibition”; on MCP-1 (50 μg/ml), “strong inhibition”. Further, the “Inhibition of cancer cells” value in the test with cancer cells is “inhibit cancer cells”.

Regarding `CCCCCc1cc2cc(O)cc(Oc3c(O)cc(O)c(C(=O)O)c3CCCCC)c2c(=O)o1` [BKT400], the “Inhibition of migration of lymphocytic Jurkat cells towards SDF-1” value at SDF-1 (1 and 10 μg/ml tested (FIG. 15)) is listed as “inhibit the migration”.
